What all share (assay type): biochemical
For test [1], the target named is T1, HDAC1 enzyme (Homo sapiens, UniProt Q13547).
T1 construct: transducing full length HDAC1 and HDAC6 genes into Sf-9 insect cells; GST; purchased SignalChem; host or cells: Sf-9 insect cells
Put plainly: HDAC1/6 Enzyme Inhibitory Assay (HDAC-Glo I/II Assay kit), HDAC1. The conditions noted are these: 1 μM test compound, wells without enzyme = 100% inhibition; for inhibition at 1 µM: read-out: HDAC1 inhibitory rate (%) (1 μM). The method, boiled down:
(§1)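 Full-length human HDAC1 or HDAC6, GST-purified from Sf-9 cells, was preincubated with compound for 60 min at room temperature in Tris-HCl pH 7.5 buffer with MgCl2, KCl, NaCl, glutathione and Tween-20. HDAC-Glo I/II substrate-developer was then added and reacted for 20 min before luminescence was read. Inhibition was set relative to no-enzyme wells as 100% inhibition.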

Test [2] addresses T2, HDAC9 enzyme (Homo sapiens, UniProt Q9UKV0).
T2 construct: transducing full length HDAC9 gene into Sf-9 insect cells; made in house; host or cells: Sf-9 insect cells
The test is described as follows: HDAC9 Enzyme Inhibitory Assay (HDAC-Glo class IIa). The note with it: 1 μM test compound, wells without enzyme = 100% inhibition; for inhibition at 1 µM: read-out: HDAC9 inhibitory rate (%) (1 μM). In short, it runs like this: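 Full-length human HDAC9 from Sf-9 cells, Ni-NTA purified, preincubated with compound for 60 min at room temperature in Tris-HCl pH 7.5 buffer (MgCl2, KCl, NaCl, glutathione, Tween-20). HDAC-Glo class IIa substrate-developer added; luminescence read after 20 min, with no-enzyme wells defining 100% inhibition.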

Test [3] concerns the target T3, HDAC6 enzyme (Homo sapiens, UniProt Q9UBN7).
T3 construct: transducing full length HDAC1 and HDAC6 genes into Sf-9 insect cells; GST; purchased SignalChem; host or cells: Sf-9 insect cells
T3 sequence (Q9UBN7 1-1215): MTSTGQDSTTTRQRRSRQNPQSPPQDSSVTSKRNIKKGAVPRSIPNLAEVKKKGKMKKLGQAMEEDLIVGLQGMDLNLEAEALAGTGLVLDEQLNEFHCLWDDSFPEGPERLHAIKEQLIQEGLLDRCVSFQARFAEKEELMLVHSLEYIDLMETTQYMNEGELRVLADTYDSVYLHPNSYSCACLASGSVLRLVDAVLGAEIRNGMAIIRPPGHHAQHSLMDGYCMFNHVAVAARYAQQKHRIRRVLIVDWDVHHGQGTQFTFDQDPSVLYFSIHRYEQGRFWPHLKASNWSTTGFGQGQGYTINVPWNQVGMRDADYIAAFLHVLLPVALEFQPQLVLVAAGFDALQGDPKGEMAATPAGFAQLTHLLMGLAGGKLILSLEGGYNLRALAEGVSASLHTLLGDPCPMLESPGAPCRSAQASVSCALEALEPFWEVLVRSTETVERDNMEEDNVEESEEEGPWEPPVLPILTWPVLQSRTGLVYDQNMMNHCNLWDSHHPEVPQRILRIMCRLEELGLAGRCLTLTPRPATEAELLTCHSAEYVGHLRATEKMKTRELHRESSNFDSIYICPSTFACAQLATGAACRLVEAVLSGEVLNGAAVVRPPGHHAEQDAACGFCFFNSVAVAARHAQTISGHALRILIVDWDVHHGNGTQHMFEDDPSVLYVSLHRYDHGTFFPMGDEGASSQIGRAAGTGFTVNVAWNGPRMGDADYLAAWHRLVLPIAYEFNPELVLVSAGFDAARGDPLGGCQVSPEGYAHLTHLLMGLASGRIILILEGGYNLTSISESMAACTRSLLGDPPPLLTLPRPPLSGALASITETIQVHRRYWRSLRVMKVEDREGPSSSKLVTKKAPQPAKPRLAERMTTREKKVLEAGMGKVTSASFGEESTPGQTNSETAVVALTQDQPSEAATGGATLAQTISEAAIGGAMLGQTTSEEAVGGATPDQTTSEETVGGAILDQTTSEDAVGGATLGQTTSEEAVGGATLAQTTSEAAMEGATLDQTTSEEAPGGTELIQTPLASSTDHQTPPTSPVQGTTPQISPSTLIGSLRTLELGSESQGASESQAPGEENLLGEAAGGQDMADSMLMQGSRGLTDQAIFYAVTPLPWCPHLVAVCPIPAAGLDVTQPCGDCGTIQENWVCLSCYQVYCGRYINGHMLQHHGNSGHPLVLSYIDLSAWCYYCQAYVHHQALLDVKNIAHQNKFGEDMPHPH
Put plainly: HDAC1/6 Enzyme Inhibitory Assay (HDAC-Glo I/II Assay kit), HDAC6. The note with it: 1 μM test compound, wells without enzyme = 100% inhibition; for inhibition at 1 µM: read-out: HDAC6 inhibitory rate (%) (1 μM). The method, boiled down: as §1

T1 sequence (Q13547 whole entry): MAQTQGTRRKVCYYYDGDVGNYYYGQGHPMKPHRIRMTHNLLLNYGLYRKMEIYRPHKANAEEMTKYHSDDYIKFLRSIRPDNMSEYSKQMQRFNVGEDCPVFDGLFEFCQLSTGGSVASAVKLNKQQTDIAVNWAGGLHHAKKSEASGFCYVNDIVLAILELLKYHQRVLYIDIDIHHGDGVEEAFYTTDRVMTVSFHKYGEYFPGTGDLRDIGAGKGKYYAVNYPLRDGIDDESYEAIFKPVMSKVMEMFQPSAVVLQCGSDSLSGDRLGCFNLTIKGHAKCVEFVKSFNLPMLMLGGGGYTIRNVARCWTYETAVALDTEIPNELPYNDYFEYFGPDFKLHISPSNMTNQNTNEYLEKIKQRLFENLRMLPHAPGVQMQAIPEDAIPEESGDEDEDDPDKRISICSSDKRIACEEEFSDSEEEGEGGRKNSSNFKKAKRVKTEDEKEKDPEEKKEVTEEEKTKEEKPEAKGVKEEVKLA
T2 sequence (Q9UKV0 whole entry, species assumed): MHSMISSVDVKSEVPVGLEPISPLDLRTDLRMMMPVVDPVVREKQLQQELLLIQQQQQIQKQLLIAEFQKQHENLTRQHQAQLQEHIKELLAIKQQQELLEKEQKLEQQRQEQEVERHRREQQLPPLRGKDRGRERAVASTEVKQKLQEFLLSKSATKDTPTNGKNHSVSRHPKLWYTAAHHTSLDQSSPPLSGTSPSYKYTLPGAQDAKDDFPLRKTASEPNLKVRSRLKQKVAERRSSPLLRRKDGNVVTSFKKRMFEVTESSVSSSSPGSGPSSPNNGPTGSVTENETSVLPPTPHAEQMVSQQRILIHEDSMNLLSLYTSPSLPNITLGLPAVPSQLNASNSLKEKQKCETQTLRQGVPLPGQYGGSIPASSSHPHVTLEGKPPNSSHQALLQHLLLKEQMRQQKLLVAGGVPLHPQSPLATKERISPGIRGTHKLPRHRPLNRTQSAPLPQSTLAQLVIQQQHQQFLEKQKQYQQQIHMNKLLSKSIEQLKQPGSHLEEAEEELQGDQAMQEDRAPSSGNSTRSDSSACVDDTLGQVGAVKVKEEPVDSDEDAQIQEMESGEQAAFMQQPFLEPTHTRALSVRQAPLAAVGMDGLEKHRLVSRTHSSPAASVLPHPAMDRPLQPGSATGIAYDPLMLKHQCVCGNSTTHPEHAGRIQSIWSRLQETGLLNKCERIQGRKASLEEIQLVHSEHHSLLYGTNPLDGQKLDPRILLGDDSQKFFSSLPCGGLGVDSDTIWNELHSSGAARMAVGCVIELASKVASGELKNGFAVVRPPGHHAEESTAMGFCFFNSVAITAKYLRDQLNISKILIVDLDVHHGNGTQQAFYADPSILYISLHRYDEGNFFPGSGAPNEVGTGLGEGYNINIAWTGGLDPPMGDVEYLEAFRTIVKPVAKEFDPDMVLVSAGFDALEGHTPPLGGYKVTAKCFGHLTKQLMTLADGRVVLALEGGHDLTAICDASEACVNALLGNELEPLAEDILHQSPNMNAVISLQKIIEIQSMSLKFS

For the molecule `O=C1CCCN1[C@@H]1COCC[C@H]1N1Cc2ccc(-c3noc(C(F)(F)F)n3)cc2C1=O` [Example 180, 2-((3S,4R)-3-(2-oxopyrrolidin-1-yl)tetrahydro-2H-pyran-4-yl)-6-(5-(trifluoromethyl)-1,2,4-oxadiazol-3-yl)isoindolin-1-one], the “HDAC1 inhibitory rate (%) (1 μM)” value in test [1] was determined as 13%. Besides, the “HDAC9 inhibitory rate (%) (1 μM)” value in test [2] is 72%. In test [3] (1 µM), the “HDAC6 inhibitory rate (%) (1 μM)” value was determined as 99%.
Regarding `O=C1c2cc(-c3noc(C(F)(F)F)n3)ccc2CN1[C@@H]1CCOC[C@H]1c1ccccc1` (relative stereo) [Example 5, trans-2-(3-phenyltetrahydro-2H-pyran-4-yl)-6-(5-(trifluoromethyl)-1,2,4-oxadiazol-3-yl)isoindolin-1-one], the “HDAC1 inhibitory rate (%) (1 μM)” value in test [1] worked out at 78%. Moreover, the “HDAC9 inhibitory rate (%) (1 μM)” value in test [2] was found to be 95%. Moreover, the “HDAC6 inhibitory rate (%) (1 μM)” value in test [3] came out at 99%.
Regarding `CC(C)(C)OC(=O)N[C@H]1CCC[C@@H]1N1Cc2ccc(-c3noc(C(F)(F)F)n3)cc2C1=O` [Example 141, tert-butyl ((1S,2S)-2-(1-oxo-6-(5-(trifluoromethyl)-1,2,4-oxadiazol-3-yl)-1,3-dihydro-2H-isoindol-2-yl)cyclopentyl)carbamate], the values for the inhibition at 1 µM in test [1], in test [2] and in test [3] were 28%, 43% and 42%, respectively.
Take `CN1CCC[C@@H]1C(=O)N[C@@H]1CCCC[C@H]1N1Cc2ccc(-c3noc(C(F)(F)F)n3)cc2C1=O` [Example 94, 1-methyl-N-((1R,2R)-2-(1-oxo-6-(5-(trifluoromethyl)-1,2,4-oxadiazol-3-yl)-1,3-dihydro-2H-isoindol-2-yl)cyclohexyl)-D-prolinamide]: the inhibition at 1 µM in test [1] stood at 5%; in test [2], 24%; in test [3] it was 99%.
`O=C(N[C@@H]1CCOC[C@H]1N1Cc2ccc(-c3noc(C(F)(F)F)n3)cc2C1=O)[C@H]1CC1(F)F` [Example 190, (1R)-2,2-difluoro-N-((3S,4R)-3-(1-oxo-6-(5-(trifluoromethyl)-1,2,4-oxadiazol-3-yl)-1,3-dihydro-2H-isoindol-2-yl)tetrahydro-2H-pyran-4-yl)cyclopropanecarboxamide]: the inhibition at 1 µM came out at 19% in test [1], 84% in test [2] and 100% in test [3].
`O=C(CN1CCCC1=O)N[C@@H]1CCCC[C@H]1N1Cc2ccc(-c3noc(C(F)(F)F)n3)cc2C1=O` [Example 121, 2-(2-oxopyrrolidin-1-yl)-N-((1R,2R)-2-(1-oxo-6-(5-(trifluoromethyl)-1,2,4-oxadiazol-3-yl)-1,3-dihydro-2H-isoindol-2-yl)cyclohexyl)acetamide]: the values for the inhibition at 1 µM in test [1], in test [2] and in test [3] were 3%, 40% and 89%, respectively.
In the case of `COc1ccc([C@@H]2CNCC[C@H]2N2Cc3ccc(-c4noc(C(F)(F)F)n4)cc3C2=O)cc1` (relative stereo) [Example 55, 2-(trans-3-(4-methoxyphenyl)piperidin-4-yl)-6-(5-(trifluoromethyl)-1,2,4-oxadiazol-3-yl)isoindolin-1-one], the figures for the inhibition at 1 µM in test [1], in test [2] and in test [3] were 95%, 99% and 96%, respectively.
Regarding `O=C(Cc1ccc(F)cc1)N1CCCC(N2Cc3ncc(-c4noc(C(F)(F)F)n4)cc3C2=O)C1` (stereo not drawn) [Example 41, 6-(1-((4-fluorophenyl)acetyl)piperidin-3-yl)-3-(5-(trifluoromethyl)-1,2,4-oxadiazol-3-yl)-6,7-dihydro-5H-pyrrolo[3,4-b]pyridin-5-one], the inhibition at 1 µM in test [1] stood at 37%; in test [2], 94%; in test [3], 93%.
Regarding `O=C1c2cc(-c3noc(C(F)(F)F)n3)ccc2CN1[C@@H]1CCNC[C@H]1c1ccc(F)cc1` (relative stereo) [Example 45, 2-(trans-3-(4-fluorophenyl)piperidin-4-yl)-6-(5-(trifluoromethyl)-1,2,4-oxadiazol-3-yl)isoindolin-1-one], the inhibition at 1 µM came to 94% in test [1], 99% in test [2] and 100% in test [3].
Turning to `O=C(C1CC1)N1C[C@@H](N2Cc3ccc(-c4noc(C(F)(F)F)n4)cc3C2=O)[C@H](c2ccccc2)C1` (relative stereo) [Example 11, trans-2-(1-(cyclopropylcarbonyl)-4-phenylpyrrolidin-3-yl)-6-(5-(trifluoromethyl)-1,2,4-oxadiazol-3-yl)isoindolin-1-one], the inhibition at 1 µM came to 70% in test [1], 95% in test [2] and 100% in test [3].
Turning to `N#CC12CC(C(=O)N[C@@H]3CCCC[C@H]3N3Cc4ccc(-c5noc(C(F)(F)F)n5)cc4C3=O)(C1)C2` [Example 160, 3-cyano-N-((1R,2R)-2-(1-oxo-6-(5-(trifluoromethyl)-1,2,4-oxadiazol-3-yl)-1,3-dihydro-2H-isoindol-2-yl)cyclohexyl)bicyclo[1.1.1]pentane-1-carboxamide], the inhibition at 1 µM in test [1] was determined as 11%; in test [2] it was 38%; in test [3] it was 99%.
Turning to `O=C1c2ccc(-c3noc(C(F)(F)F)n3)cc2CN1[C@H]1CCNC[C@H]1c1ccccc1` (relative stereo) [Example 79, cis-2-(3-phenylpiperidin-4-yl)-5-(5-(trifluoromethyl)-1,2,4-oxadiazol-3-yl)isoindolin-1-one], the inhibition at 1 µM amounted to 17% in test [1], 88% in test [2] and 78% in test [3].
For `O=C(N[C@@H]1CCCC[C@H]1N1Cc2ccc(-c3noc(C(F)(F)F)n3)cc2C1=O)N1CC2CC(C1)O2` [Example 164, N-((1R,2R)-2-(1-oxo-6-(5-(trifiuoromethyl)-1,2,4-oxadiazol-3-yl)-1,3-dihydro-2H-isoindol-2-yl)cyclohexyl)-6-oxa-3-azabicyclo[3.1.1]heptane-3-carboxamide] the same measures were 1%, 18% and 97%.
In the case of `O=C(N[C@@H]1CCOC[C@H]1N1Cc2ccc(-c3noc(C(F)(F)F)n3)cc2C1=O)[C@@H]1CC1(F)F` [Example 172, (1S)-2,2-difluoro-N-((3S,4R)-3-(1-oxo-6-(5-(trifluoromethyl)-1,2,4-oxadiazol-3-yl)-1,3-dihydro-2H-isoindol-2-yl)tetrahydro-2H-pyran-4-yl)cyclopropanecarboxamide], the inhibition at 1 µM in test [1] is 7%; in test [2], 49%; in test [3] it was 99%.
Turning to `O=C1c2cc(-c3noc(C(F)(F)F)n3)ccc2CN1[C@@H]1CC[C@@H]1Cc1ccccc1` (relative stereo) [Example 60, 2-(cis-2-benzylcyclobutyl)-6-(5-(trifluoromethyl)-1,2,4-oxadiazol-3-yl)isoindolin-1-one], the results for the inhibition at 1 µM in test [1], in test [2] and in test [3] were 37%, 77% and 92%, respectively.
For `CC(=O)N1CC[C@H](N2Cc3cc(-c4noc(C(F)(F)F)n4)ccc3C2=O)[C@H](c2ccccc2)C1` (relative stereo) [Example 80, cis-2-(1-acetyl-3-phenylpiperidin-4-yl)-5-(5-(trifluoromethyl)-1,2,4-oxadiazol-3-yl)isoindolin-1-one] the same measures were 13%, 97% and 76%.

For the origin of these results see patent US10308643B2, “Heterocyclic compound” (Takeda Pharmaceutical Company Limited, priority 2015, dated 2019).
